# Results: US20130296390A1, “METHOD AND COMPOSITIONS FOR ENHANCING THE SAFETY OF ORALLY ADMINISTERED MAGNESIUM ALPHA-LIPOATE” (BIOLINK LIFE SCIENCES, INC., priority 2012, published 2013)
# “Also recorded” adds a separate entry of the source.
# Columns and labels:
# [1] = target: T1, sodium-dependent vitamin transporters (SMVT) (Homo sapiens, UniProt Q9Y289); settings: keratinocytes, cited from earlier work; for Ki: read-out: Ki, inhibition of biotin uptake
# T1 construct: in keratinocytes, the SMVT transport system; endogenous in cells; host or cells: human keratinocytes
# T1 sequence (Q9Y289 1-635): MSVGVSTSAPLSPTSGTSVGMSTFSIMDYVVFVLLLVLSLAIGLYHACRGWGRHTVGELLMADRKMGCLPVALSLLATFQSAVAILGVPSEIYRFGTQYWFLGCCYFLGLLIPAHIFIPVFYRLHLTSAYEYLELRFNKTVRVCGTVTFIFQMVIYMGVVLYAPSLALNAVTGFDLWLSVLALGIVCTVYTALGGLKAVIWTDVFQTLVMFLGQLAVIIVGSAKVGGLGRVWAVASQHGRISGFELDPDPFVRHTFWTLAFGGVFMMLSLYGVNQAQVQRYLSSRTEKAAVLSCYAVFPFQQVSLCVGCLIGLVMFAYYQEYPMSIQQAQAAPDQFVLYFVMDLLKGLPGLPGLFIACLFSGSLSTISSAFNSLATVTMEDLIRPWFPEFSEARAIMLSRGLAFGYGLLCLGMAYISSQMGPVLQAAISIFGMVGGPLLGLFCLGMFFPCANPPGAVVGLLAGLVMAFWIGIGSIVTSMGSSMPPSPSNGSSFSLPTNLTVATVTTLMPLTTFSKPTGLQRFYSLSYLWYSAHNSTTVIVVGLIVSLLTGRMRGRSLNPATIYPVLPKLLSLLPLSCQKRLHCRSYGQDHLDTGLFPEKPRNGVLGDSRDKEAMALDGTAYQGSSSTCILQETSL
# [2] = Short and long-term toxicity studies of ALA (NOAEL); assay type: in vivo
# Protocol: Alpha-Lipoic acid is the sole remaining component in the formulation tested in Example 1. The safety and absence of toxicity of ALA has been established in both short and long-term toxicity studies, including in vitro mutagenicity/genotoxicity studies. The no-observed adverse effect level (NOAEL) of ALA is considered to be 60 mg per kg body weight per day. […] Nonetheless, the inventor examined to a number of potential mechanisms of toxicity related to alpha-lipoate.
# [3] = test system: second biotin transport component; settings: keratinocytes, cited from earlier work
# [4] = in vivo; cited from earlier work
# [5] = oral; cited from earlier work
# [6] = target: T2, pyruvate carboxylase (EC 6.4.1.1) (Rattus norvegicus, UniProt P52873); settings: intraperitoneal ALA 8.8 mg/kg·day or 31.8 mg/kg·d, rats, compared with vehicle controls (P<0.05); cited from earlier work
# T2 construct: Lipoic acid reduces the activities of biotin-dependent carboxylases in rat liver; from tissue; host or cells: rat liver
# T2 sequence (P52873 21-1178): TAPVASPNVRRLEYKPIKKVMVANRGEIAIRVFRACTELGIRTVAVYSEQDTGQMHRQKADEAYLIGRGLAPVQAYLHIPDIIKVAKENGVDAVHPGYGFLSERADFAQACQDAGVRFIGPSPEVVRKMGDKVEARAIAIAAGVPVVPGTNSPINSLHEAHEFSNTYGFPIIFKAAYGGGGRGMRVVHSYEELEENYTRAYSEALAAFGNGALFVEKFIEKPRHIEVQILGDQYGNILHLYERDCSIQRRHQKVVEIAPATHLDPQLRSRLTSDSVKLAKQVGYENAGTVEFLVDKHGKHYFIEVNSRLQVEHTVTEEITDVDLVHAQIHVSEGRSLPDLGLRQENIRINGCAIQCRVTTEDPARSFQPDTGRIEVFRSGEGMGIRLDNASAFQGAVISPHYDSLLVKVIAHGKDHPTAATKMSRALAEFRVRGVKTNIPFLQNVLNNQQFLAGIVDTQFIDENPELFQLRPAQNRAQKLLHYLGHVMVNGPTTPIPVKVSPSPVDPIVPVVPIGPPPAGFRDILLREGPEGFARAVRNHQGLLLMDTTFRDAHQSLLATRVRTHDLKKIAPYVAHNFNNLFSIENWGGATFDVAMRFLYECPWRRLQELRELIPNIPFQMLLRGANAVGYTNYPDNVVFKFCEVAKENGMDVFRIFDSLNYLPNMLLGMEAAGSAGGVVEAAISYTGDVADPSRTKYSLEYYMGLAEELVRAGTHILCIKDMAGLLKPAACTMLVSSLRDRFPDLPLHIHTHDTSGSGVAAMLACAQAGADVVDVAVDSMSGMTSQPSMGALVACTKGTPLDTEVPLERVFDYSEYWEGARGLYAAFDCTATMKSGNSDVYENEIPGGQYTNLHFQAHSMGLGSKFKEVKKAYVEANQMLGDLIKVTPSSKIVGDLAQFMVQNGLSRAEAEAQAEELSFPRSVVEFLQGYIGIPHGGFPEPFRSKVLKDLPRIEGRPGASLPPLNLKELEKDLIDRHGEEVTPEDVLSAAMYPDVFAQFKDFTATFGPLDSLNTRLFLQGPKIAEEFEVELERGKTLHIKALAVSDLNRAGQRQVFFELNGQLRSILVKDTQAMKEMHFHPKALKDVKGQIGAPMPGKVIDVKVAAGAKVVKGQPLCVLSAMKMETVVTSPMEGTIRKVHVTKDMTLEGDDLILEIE
# [7] = target: T3, β-methylcrotonyl-CoA carboxylase (EC 6.4.1.4) (Rattus norvegicus, UniProt Q5I0C3+Q5XIT9); settings: intraperitoneal ALA 8.8 mg/kg·day or 31.8 mg/kg·d, rats, compared with vehicle controls (P<0.05); cited from earlier work
# T3 construct: Lipoic acid reduces the activities of biotin-dependent carboxylases in rat liver; from tissue; host or cells: rat liver
# T3 sequence (Q5I0C3 39-715): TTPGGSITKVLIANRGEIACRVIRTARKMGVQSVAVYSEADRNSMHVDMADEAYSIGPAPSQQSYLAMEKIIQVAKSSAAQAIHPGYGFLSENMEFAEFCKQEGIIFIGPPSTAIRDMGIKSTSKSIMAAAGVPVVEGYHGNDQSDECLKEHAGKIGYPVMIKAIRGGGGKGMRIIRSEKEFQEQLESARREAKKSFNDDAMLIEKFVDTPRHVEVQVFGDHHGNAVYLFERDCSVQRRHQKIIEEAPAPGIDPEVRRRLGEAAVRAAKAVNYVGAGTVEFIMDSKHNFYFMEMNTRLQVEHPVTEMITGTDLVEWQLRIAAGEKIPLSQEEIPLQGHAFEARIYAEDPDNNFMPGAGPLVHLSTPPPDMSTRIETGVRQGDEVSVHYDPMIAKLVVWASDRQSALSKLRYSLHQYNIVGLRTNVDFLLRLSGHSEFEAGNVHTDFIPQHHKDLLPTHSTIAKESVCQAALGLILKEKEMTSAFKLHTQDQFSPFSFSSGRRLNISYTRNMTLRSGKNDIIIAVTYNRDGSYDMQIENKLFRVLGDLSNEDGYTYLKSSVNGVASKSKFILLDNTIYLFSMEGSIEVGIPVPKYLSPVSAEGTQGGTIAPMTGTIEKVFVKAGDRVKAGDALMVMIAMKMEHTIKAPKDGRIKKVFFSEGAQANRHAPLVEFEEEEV
# T3 sequence (Q5XIT9 23-563): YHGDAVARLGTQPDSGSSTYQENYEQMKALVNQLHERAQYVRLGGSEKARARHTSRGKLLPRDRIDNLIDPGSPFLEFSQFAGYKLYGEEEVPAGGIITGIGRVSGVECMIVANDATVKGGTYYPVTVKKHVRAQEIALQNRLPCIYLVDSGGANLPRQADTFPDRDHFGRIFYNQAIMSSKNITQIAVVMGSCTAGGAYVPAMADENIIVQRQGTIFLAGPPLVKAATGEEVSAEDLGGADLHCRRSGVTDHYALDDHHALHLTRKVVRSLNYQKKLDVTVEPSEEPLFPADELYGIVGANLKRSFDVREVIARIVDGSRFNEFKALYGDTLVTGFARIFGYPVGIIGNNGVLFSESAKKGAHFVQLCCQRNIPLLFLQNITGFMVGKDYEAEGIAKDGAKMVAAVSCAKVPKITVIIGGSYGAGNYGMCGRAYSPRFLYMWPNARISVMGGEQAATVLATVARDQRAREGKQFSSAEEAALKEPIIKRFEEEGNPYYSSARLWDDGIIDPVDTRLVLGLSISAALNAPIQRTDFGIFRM
# [8] = test system: acetyl-CoA carboxylase (EC 6.4.1.2); settings: intraperitoneal ALA 8.8 mg/kg·day or 31.8 mg/kg·d, rats; wide intragroup variability; cited from earlier work
# [9] = intravenous, acute 100 mg/kg dose, rat; cited from earlier work
# [10] = cited from earlier work
# [11] = oral, chronic daily doses about 30 mg/kg to over 2,000 mg/kg body weight; cited from earlier work
# [12] = Physicochemical description
# [13] = test system: mouse model of chronic kidney disease (CKD); experiment: Example 1: phosphate binders in diet of LDLR−/− mouse model of CKD; assay type: in vivo; settings: chronic daily dose of 0.5% or 1.5% (by weight) in the diet, oral
# Text: This study critically examined the in vivo efficacy of phosphate binding by a combination of phosphate binders, magnesium R-(+)-α-lipoate and calcium succinate monohydrate, in a mouse model of chronic kidney disease (CKD). The model is partial renal ablation in the LDL receptor-deficient (LDLR−/−) mouse that is fed high fat/cholesterol diets. […] In these animals, CKD causes intensification of vascular calcification (VC).
# Materials: Calcium succinate monohydrate (CaSucc) and magnesium R-(+)-α-lipoate (MgRALA) having high purity and freedom from contaminating trace metals were provided by BioLink Life Sciences, Inc. Other chemicals were purchased from Sigma Aldrich Company (St. Louis, Mo.). […]
# Two sets of animals in the group receiving magnesium alpha-lipoate were treated according to the protocol. […] Myocardin, Smad6, sm22α, calponin, αSMA, BMP-2, RUNX2/Cbfa1, osteopontin and osteocalcin message levels were measured by real time RT-PCR. Osteocalcin, type 1 collagen and αSMA were determined by immunohistochemistry. MGP levels and specifically γ-carboxylated MGP were determined with a specific antibody. […]
# Blood Tests: Serum was analyzed on the day of blood draw for blood urea nitrogen [BUN], cholesterol, calcium, glucose and phosphate by standard autoanalyzer laboratory methods.
structure (smiles),measurement,setting,value
O=C(O)CCCC[C@@H](S)CCS (racemic) [dihydrolipoic acid],Ki,[1],11.4 µM
"O=C(O)CCCCC1CCSS1 (stereo not drawn) [ALA, alpha-lipoic acid]",NOAEL equivalent for an adult man,[2]; adult man,4.2 grams of ALA per day
same,NOAEL equivalent for an adult woman,[2]; adult woman,3 grams of ALA per day
same,Ki,[1],4.6 µM
same,inhibition of second biotin transport component,[3],not inhibited
same,no-observed adverse effect level (NOAEL),[4],60 mg per kg body weight per day
same,fraction of orally administered ALA absorbed into cells and the systemic circulation,[5],greater than 90%
same,time in which most of the orally administered ALA is absorbed,[5],two
same,reduction of pyruvate carboxylase activity,[6],28-36%
same,reduction of β-methylcrotonyl carboxylase activity,[7],28-36%
same,decrease of acetyl carboxylase activity,[8],≤ 43%
same,S-adenosylhomocysteine,[9],elevated
same,S-adenosylmethionine,[9],depleted
same,toxicities in human studies,[10]; normal subjects and those with chronic kidney disease,no significant toxicities have been observed
same,overt adverse effects in humans,"[10]; oral, total doses 100 mg to 1800 mg daily for months or years",without overt adverse effects; also recorded: no overt adverse effects
same,overt adverse effects in animals,[11],without overt adverse effects
"O=C(O)CCCCC1CCSS1 (stereo not drawn) [Magnesium a-lipoate, magnesium alpha-lipoate]",stability and hygroscopicity of the powder,[12],"stable, non-hygroscopic"
"O=C(O)CCCC[C@@H]1SC[C@@H]2NC(=O)N[C@@H]21 [biotin, D-biotin]",Michaelis-Menten constant for biotin,[1]; SMVT transport system,22.7 ± 1.0 µM
same,maximal velocity,[1]; SMVT transport system,163.6±3.5 pmol per five minutes per milligram of protein
same,Ki,"[3]; read-out: Ki, second biotin transport component, saturable at very low biotin concentrations",0.0026 ± 0.0001 µM
C[C@@H]1NC(=O)N[C@@H]1CCCCCC(=O)O [desthiobiotin],Ki,[1],15.2 µM
"O=C(O)CCCC[C@@H]1CCSS1 [magnesium R-(+)-alpha-lipoate, Magnesium R-(+)-alpha-lipoate]",overt adverse effects (FIG. 1),[13],hair loss and skin disorders
same,stability and hygroscopicity of the powder,[12],"stable, non-hygroscopic"
CC(C)(CO)[C@@H](O)C(=O)NCCC(=O)O [panthothenic acid],Ki,[1],1.2 µM
same,inhibition of second biotin transport component,[3],not inhibited
